≈ marks a conversion by molar mass, not a printed value. Like-named read-outs stand apart in the source and are kept apart here.
Key:
DPP-VIII = target: T1, DPP-VIII (Homo sapiens, UniProt Q6V1X1); test: DPP-VIII inhibition, Promega DPPIV-Glo Protease Assay; assay type: biochemical; settings: read-out: IC50 DPP8
T1 construct: purchased Bioscience 80080
Procedure: (§1) The compounds of the present invention were tested to determine their DPP-IV, DPP-VIII, DPP-IX inhibition activity according to the following methods. The half inhibition concentrations IC50 (the concentration of the test compound showing 50% inhibition to the enzyme activity) of each compound were determined by reaction test and calculation of the mixture of fixed amounts of enzyme and substrate with several different concentrations of the test compounds.
(§2) The compounds of the present invention were tested to determine the DPP-IV, DPP-VIII, DPP-IX inhibition activity in the following tests using Promega DPPIV-Glo™ Protease Assay (Cat No. G8350/G8351) Kit, wherein:
b. DPP-VIII enzyme bought from Bioscience, Catalog no. 80080;
(§3) The preparation procedure of the conventional reagent such as DPPIV-Glo buffer, luciferin reagents needed in the test and the detail operation of the test can refer to the specifications of the kits. The assay was carried out as following steps:
(§4) The tested compounds were dissolved in DMSO to prepare a series of different concentrations of the test compound solution. DPPIV-Glo buffer and the freezing luciferin detection reagent were equilibrated to room temperature. The luciferin detection reagent was dissolved in moderate buffer in a brown flask to form a solution. Then DPP-IV-Glo. was dissolved in ultrapure water to give the appropriate concentration. The substrate solution and the luciferin detection reagent solution were mixed sufficiently in an appropriate ratio (the ratio of the invention is 1:49), and the mixture was layed at room temperature for 30-60 minutes. Tris buffer (2 mM, pH 8.0), the test compounds and DPP-IV (DPP-VIII or DPP-IX) were mixed and then transferred to a 96-well plate. Each test contains double-well of three-well control. The same volume of DMSO was added to the negative control and blank control. Then the 96-well plate was added with mixed solution of luciferin detection reagent and substrate to initiate the reaction. The 96-wells plate was incubated at room temperature on a plate shaker for 40 minutes after sealed. The strength of the fluorescent signal in each well was determined by microplate reader and the inhibition rate to the enzyme of the compound at this concentration was calculated by the formula as following: inhibitory rate: IR=[1−(S−B)/(N−B)]*100% • S: value of the sample • B: value of the blank control • N: value of the negative control
(§5) IC50 of the test compounds can be calculated by the inhibition rate at different concentration.

[1] = Pharmacokinetics assay in rats (LC/MS/MS plasma concentration); assay type: in vivo, SD rats; settings: for Vd/F: read-out: Vz/F; for F: intragastric 3.0 mg/kg (as free base), absolute bioavailability from AUC0-t vs vein injection
Description: The compound of Example 3 was administrated intragastrically or tail vein injection to rats and the compounds of Example 1-4, Example 9 and Example 11-12 were administrated intragastrically to determine the drug concentration in plasma at different time points by LC/MS/MS measurement. The pharmacokinetics of the compounds of the present invention was studied and evaluated in rats. And the oral absolute bioavailability was investigated.
Compounds of Example 1-4, Example 9 and Example 11-12.
[…] healthy adult SD rats, male and female in half, were purchased from SINO-BRITSH SIPPR/BK LAB.ANIMAL LTD., CO, License number: SCXK (Shanghai) 2008-0016.
Vein injection group: the proper weighed test compound was dissolved in 0.5 mL of DMSO by ultrasound and then diluted with normal saline to 15 mL to form a 0.3 mg/mL solution.
Intragastrically administered group: the proper weighed test compound was dissolved in 0.5% CMC-Na by ultrasound to form a 0.3 mg/mL of suspension.
32 healthy adult SD rats, male and female in half, were divided into 8 groups so that each group consisted 4 rats. After an overnight fast, the rats were tail vein injected of the compound of Example 3 and intragastrically administered the compound of Example 3 and the salt thereof, at a dose of 3.0 mg/kg (calculated as the free base form) and a volume of 10 mL/kg.
Blood samples (0.2 mL) of the rats in vein injection group were taken from eye socket at pre administration and at 2, 15, 30 minutes and 1.0, 2.0, 4.0, 6.0, 8.0, 12.0, 24.0 hours post administration, which were stored in heparinized tubes and centrifuged for 10 minutes at 3,500 rpm. The plasma samples were stored at −20° C. until analysis. The rats were fed 2 hours after administration.
Blood samples of the rats in intragastrically administered group were taken at pre administration and at 0.5, 1.0, 2.0, 3.0, 4.0, 6.0, 8.0, 12.0, 24.0 hours post administration. The samples were treated with the same method as mentioned above.
50 μL of internal standard solution and 150 μL of methanol were added to 50 μL of rat plasma obtained at various time points after administration. Then the mixture was mixed for 3 minutes using a vortexer and centrifuged for 10 minutes at 13,500 rpm. 10 μL of the supernatant was analyzed by LC/MS/MS.
The compartmental model of pharmacokinetics was fitted for the test compounds and the major pharmacokinetic parameters were calculated by DAS 2.0 software in which Cmax and tmax were the actually measured values. The absolute bioavailability was calculated by AUC0-t taken from post administration and vein injection.

normal ICR mice = test: Hypoglycemic effect, oral glucose tolerance in normal ICR mice; assay type: in vivo; settings: 10 mg/kg by gavage, glucose 4 g/kg 15 minutes after administration
Procedure: To observe the effects on oral glucose tolerance of the compounds of Example 1-4 and Example 8-12 in normal ICR mice (SINO-BRITSH SIPPR/BK LAB.ANIMAL LTD., CO), the hypoglycemic effects in vivo have been evaluated using blood-glucose meter to measure and analyze the sugar content of the samples at different time points during 2 hours. The samples were taken from the mouse's tail.
The administration dose was 10 mg/kg, and the blank was administered with water. Both groups contained 5% DMSO.
The mice were administered by gavage. 4 g/kg of 10% glucose solution was administered (0.8 mL to each mice) 15 minutes after administration.
The mice were administered according to above dose (the blank group was administrated with 5% DMSO aqueous solution) and the blood sugar value was measured (−15 minutes).
15 minutes after administration, the mice were administered of 4 g/kg of 20% glucose solution and the values of blood sugar were tested by Roche ACCU-CHEK at 0, 15, 30, 45, 60, 120 minutes.

DPP-IX = target: T2, DPP-IX (Homo sapiens, UniProt Q86TI2); test: DPP-IX inhibition, Promega DPPIV-Glo Protease Assay; assay type: biochemical; settings: read-out: IC50 DPP9
T2 construct: purchased Bioscience 80090
T2 sequence (Q86TI2 whole entry): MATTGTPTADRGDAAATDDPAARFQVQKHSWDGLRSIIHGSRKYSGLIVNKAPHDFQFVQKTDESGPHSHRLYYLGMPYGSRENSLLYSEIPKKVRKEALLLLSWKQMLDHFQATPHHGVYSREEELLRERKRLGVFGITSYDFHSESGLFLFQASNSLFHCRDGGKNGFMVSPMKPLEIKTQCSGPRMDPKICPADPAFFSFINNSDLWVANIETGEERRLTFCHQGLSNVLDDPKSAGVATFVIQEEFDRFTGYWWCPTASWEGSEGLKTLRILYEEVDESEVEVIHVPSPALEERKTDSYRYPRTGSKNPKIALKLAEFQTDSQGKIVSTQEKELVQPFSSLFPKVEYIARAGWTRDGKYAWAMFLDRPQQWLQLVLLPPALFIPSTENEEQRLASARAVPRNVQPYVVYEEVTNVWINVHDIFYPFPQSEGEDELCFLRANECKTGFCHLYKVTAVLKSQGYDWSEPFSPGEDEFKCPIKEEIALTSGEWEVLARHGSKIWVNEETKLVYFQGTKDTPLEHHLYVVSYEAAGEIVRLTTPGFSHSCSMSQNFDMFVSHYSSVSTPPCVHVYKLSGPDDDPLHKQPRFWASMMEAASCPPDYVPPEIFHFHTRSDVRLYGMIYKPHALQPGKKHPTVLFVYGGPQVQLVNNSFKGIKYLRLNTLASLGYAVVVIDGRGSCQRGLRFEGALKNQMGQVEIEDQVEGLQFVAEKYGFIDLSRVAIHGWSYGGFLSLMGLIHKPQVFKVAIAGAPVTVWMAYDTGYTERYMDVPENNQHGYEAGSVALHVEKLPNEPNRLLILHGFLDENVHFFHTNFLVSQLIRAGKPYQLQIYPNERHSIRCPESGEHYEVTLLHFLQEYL
Procedure: as §1, §2
c. DPP-IX enzyme bought from Bioscience, Catalog no. 80090.
as §3, §4, §5

[2] = Solubility experiment in four systems; assay type: physicochemical
Procedure: According to the conventional solubility measurement, the solubility of the test samples were determined in four different systems: phosphate buffer solution (PBS, pH=7.4), methanol, 0.1% hydrochloric acid and water.

DPP-IV = target: T3, DPP-IV (Homo sapiens, UniProt P27487); test: DPP-IV inhibition, Promega DPPIV-Glo Protease Assay; assay type: biochemical
T3 construct: purchased Calbiochem 317630
T3 sequence (P27487 whole entry): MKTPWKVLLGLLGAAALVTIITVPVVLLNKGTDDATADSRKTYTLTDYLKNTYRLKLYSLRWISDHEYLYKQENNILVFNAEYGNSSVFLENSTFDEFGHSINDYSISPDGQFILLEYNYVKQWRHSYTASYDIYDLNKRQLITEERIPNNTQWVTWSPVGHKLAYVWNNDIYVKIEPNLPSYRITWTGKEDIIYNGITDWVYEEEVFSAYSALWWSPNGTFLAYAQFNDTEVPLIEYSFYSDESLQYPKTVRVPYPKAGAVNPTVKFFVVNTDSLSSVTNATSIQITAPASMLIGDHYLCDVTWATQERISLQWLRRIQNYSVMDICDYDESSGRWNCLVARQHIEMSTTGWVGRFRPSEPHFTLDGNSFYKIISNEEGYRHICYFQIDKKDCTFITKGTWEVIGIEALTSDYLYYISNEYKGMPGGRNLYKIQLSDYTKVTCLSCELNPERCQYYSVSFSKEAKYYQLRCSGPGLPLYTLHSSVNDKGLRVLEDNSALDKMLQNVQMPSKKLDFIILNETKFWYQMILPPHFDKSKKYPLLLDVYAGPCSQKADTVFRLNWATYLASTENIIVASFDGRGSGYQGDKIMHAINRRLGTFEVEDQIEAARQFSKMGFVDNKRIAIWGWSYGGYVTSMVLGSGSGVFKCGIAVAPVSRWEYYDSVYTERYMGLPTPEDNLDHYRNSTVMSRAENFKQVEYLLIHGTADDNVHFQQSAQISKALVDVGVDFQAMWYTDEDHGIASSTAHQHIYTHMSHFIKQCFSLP
Procedure: as §1, §2
a. DPP-IV enzyme bought from Calbiochem, Catalog no. 317630;
as §3, §4, §5

[3] = both sexes, SD, rat, plasma, po, 3 mg/kg, intragastric 3.0 mg/kg
[4] = both sexes, SD, rat, plasma, po, 3 mg/kg, intragastric 3.0 mg/kg, read-out: AUC0-t
[5] = both sexes, SD, rat, plasma, po, 3 mg/kg, intragastric 3.0 mg/kg, read-out: CL/F (converted)
[6] = both sexes, SD, rat, plasma, po, 3 mg/kg, intragastric 3.0 mg/kg, read-out: Cmax
[7] = both sexes, SD, rat, plasma, po, 3 mg/kg, intragastric 3.0 mg/kg, read-out: MRT
[8] = both sexes, SD, rat, plasma, po, 3 mg/kg, intragastric 3.0 mg/kg, read-out: Tmax
[9] = 0.1% hydrochloric acid, simulated gastric fluid, 0.1% hydrochloric acid, read-out: Solubility Value, 0.1% HCl
[10] = methanol, organic solvent or mixture, methanol, read-out: Solubility Value, methanol
[11] = phosphate buffer solution (PBS), pH 7.4, aqueous buffer, PBS pH 7.4, read-out: Solubility Value, PBS (pH 7.4)
[12] = water, read-out: Solubility Value, water

T1 sequence (Q6V1X1 whole entry): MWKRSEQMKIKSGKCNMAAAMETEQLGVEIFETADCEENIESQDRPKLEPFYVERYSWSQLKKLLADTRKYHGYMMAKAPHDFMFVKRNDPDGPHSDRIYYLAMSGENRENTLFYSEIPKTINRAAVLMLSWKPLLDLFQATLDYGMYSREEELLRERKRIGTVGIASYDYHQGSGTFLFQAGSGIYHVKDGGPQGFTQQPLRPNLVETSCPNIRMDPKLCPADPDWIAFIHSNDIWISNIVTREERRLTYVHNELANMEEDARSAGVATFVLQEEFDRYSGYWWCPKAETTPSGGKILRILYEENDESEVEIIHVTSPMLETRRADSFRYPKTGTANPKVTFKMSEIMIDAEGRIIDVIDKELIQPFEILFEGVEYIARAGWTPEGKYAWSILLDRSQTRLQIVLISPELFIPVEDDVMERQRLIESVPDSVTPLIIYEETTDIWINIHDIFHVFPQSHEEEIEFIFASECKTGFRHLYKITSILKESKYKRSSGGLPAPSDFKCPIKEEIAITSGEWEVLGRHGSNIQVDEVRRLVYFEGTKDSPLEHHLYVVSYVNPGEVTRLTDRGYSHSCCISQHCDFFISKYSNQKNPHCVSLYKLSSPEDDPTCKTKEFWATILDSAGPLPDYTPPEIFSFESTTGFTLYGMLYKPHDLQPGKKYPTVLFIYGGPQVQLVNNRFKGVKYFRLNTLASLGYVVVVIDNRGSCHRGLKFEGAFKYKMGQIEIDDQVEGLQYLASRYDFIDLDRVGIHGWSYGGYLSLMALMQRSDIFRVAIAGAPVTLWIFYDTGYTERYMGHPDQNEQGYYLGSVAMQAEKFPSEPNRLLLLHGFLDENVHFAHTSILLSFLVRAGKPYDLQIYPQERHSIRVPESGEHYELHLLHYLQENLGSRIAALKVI

In the case of `N[C@@H](CC(=O)N1CCn2c(C(F)(F)F)nc(C(=O)O)c2C1)Cc1cc(F)c(F)cc1F.O=C(O)C(O)C(O)C(=O)O` [Example 12, (R)-7-[3-Amino-4-(2,4,5-trifluorophenyl)butanoyl]-3-trifluoromethyl-5,6,7,8-tetrahydro-imidazo[1,5-a]pyrazine-1-carboxylic acid (2S,3S)-2,3-dihydroxybutanedioic acid], the IC50 (DPP-VIII) is reported as 244 µM, the half-life [1, 3] is reported as 2.54 ± 0.86 h and the AUC(0-t) [1, 4] is reported as 0.0746 ± 0.0217 µg·h/mL. The CL/F [1, 5] was 40.3 L/h/kg, the Cmax [1, 6] was 0.017 ± 0.0069 µg/mL and the MRT [1, 7] was 4.23 ± 0.84 h. For the same compound, the Tmax [1, 8] was 1.75 ± 0.5 h, the Vd/F [1, 3] was 154 ± 77 L/kg and the F [1] was 3.25%. The “Hypoglycemic rate of blood sugar of 30 minutes after administration” value (“Hypoglycemic rate” below) (normal ICR mice) was 24.11%, the IC50 (DPP-IX) was 135 µM and the solubility [2, 9] was 33.8 mg/mL. It also gave a solubility [2, 10] of 0.5 mg/mL, a solubility [2, 11] of 12.3 mg/mL and a solubility [2, 12] of 19.5 mg/mL. The IC50 (DPP-IV) was 0.012 µM.
For `N[C@@H](CC(=O)N1CCn2c(C(F)(F)F)nc(C(=O)O)c2C1)Cc1cc(F)c(F)cc1F` [Example 3, (R)-7-[3-Amino-4-(2,4,5-trifluorophenyl)butanoyl]-3-trifluoromethyl-5,6,7,8-tetrahydro-imidazo[1,5-a]pyrazine-1-carboxylic acid], the IC50 (DPP-VIII) was 236 µM, the half-life ([1]; both sexes, SD, rat, plasma, iv, 3 mg/kg, tail vein injection 3.0 mg/kg) was 2.35 ± 1.9 h and the AUC(0-t) ([1]; both sexes, SD, rat, plasma, iv, 3 mg/kg, tail vein injection 3.0 mg/kg, read-out: AUC0-t) was 2.29 ± 0.353 µg·h/mL. It also gave an MRT ([1]; both sexes, SD, rat, plasma, iv, 3 mg/kg, tail vein injection 3.0 mg/kg, read-out: MRT) of 0.22 ± 0.06 h, an AUC(0-t) ([1]; intragastric 3.0 mg/kg) of 0.0583 ± 0.0173 µg·h/mL and a CL/F ([1]; intragastric 3.0 mg/kg) of 51.7 ± 16.0 L/h/kg. The Cmax ([1]; intragastric 3.0 mg/kg) was 0.0134 ± 0.0056 µg/mL, the MRT ([1]; intragastric 3.0 mg/kg) was 4.45 ± 1.01 h and the Tmax ([1]; intragastric 3.0 mg/kg) was 1.00 ± 0.00 h. For the same compound, the t1/2 ([1]; intragastric 3.0 mg/kg) was 2.73 ± 0.73 h, the F [1] was 2.54% and the CL/F ([1]; tail vein injection 3.0 mg/kg) was 1.33 ± 0.20 L/h/kg. The “Hypoglycemic rate” value (normal ICR mice; 10 mg/kg) was 25.60%, the IC50 (DPP-IX) was 125 µM and the “Solubility Value, 0.1% HCl” value ([2]; 0.1% hydrochloric acid) was 20.5 mg/mL (≈ 45.5 mM). For the same compound, the “Solubility Value, PBS (pH 7.4)” value ([2]; PBS pH 7.4) was 7.0 mg/mL, the “Solubility Value, methanol” value ([2]; methanol) was 32.7 mg/mL (≈ 72.6 mM) and the “Solubility Value, water” value ([2]; water) was 9.2 mg/mL (≈ 20.4 mM). For the same compound, the IC50 (DPP-IV) was 0.013 µM.
`N[C@@H](CC(=O)N1CCn2c(C(F)(F)F)nc(C(=O)[O-])c2C1)Cc1cc(F)c(F)cc1F.[Na+]` [Example 4, Sodium (R)-7-[3-amino-4-(2,4,5-trifluorophenyl)butanoyl]-3-trifluoromethyl-5,6,7,8-tetrahydro-imidazo[1,5-a]pyrazine-1-carboxylate] showed an IC50 (DPP-VIII) of 77.3 µM, a half-life [1, 3] of 2.65 ± 0.94 h and an AUC(0-t) [1, 4] of 0.0666 ± 0.0106 µg·h/mL. The CL/F [1, 5] was 43.7 L/h/kg, the Cmax [1, 6] was 0.0142 ± 0.002 µg/mL and the MRT [1, 7] was 4.3 ± 0.6 h. It also gave a Tmax [1, 8] of 1.75 ± 0.96 h, a Vd/F [1, 3] of 164 ± 56 L/kg and an F [1] of 2.90%. The “Hypoglycemic rate” value (normal ICR mice) was 9.49%, the IC50 (DPP-IX) was 42.3 µM and the solubility [2, 9] was 94.8 mg/mL. For the same compound, the solubility [2, 10] was 46.7 mg/mL, the solubility [2, 11] was 57.4 mg/mL and the solubility [2, 12] was 43.5 mg/mL. For the same compound, the IC50 (DPP-IV) was 0.022 µM.

— patent US8518946B2, “Salts of (R)-7-[3-amino-4-(2,4,5-trifluorophenyl)butanoyl]-3-trifluoromethyl-5,6,7,8-tetrahydroimidazo[1,5-a] pyrazine-1-carboxylic acid, preparation method and medical use thereof” (Jiangsu Hengrui Medicine Co., Ltd., priority 2009, dated 2013)
